The values that follow come from patent US20190046556A1, “Methods and Pharmaceutical Compositions for the Prophylactic Treatment of Peritoneal Carcinomatosis” (INSERM (Institut National de la Sante et de la Recherche …, priority 2016, published 2019).

The experiment concerns OVCAR. It is filed as in vivo. The following applies: 21 days, nude mice. An excerpt:
For that experiment, a human ovarian cancer cell line, named OVCAR is used, as prior exposed for the CT-26 cells. The only difference is the mice receiving cell injection, because OVACR is a human cancer cell, a nude mice animal is used because of immune deficiency of the animal.

Regarding `O=C1[O][Pt]2([NH][C@@H]3CCCC[C@H]3[NH]2)[O]C1=O` [Oxaliplatin], the “Mean PCI (peritoneal cancer index)” value was 3,7.
